# ChEMBL document CHEMBL2390906, “Synthetic chalcones and sulfonamides as new classes of Yersinia enterocolitica YopH tyrosine phosphatase inhibitors” (Eur J Med Chem, 2013)
# Legend:
# [1] = molecular target: T1, Tyrosine-protein phosphatase YopH (Yersinia enterocolitica, UniProt P15273); assay: Inhibition of Yersinia enterocolitica recombinant YopH using pNPP as substrate after 10 mins by spectrophotometry
# [2] = molecular target: Tyrosine-protein phosphatase YopH (Yersinia enterocolitica) (UniProt P15273); assay: Inhibition of Yersinia enterocolitica recombinant YopH using pNPP as substrate at 25 uM after 10 mins by spectrophotometry
# [3] = molecular target: T1, Tyrosine-protein phosphatase YopH; assay: Competitive inhibition of Yersinia enterocolitica recombinant YopH using pNPP as substrate after 10 mins by Line-weaver Burk plot analysis
# [4] = molecular target: T1, Tyrosine-protein phosphatase YopH; assay: Noncompetitive inhibition of Yersinia enterocolitica recombinant YopH using pNPP as substrate after 10 mins by Line-weaver Burk plot analysis
# T1 sequence (P15273 whole entry): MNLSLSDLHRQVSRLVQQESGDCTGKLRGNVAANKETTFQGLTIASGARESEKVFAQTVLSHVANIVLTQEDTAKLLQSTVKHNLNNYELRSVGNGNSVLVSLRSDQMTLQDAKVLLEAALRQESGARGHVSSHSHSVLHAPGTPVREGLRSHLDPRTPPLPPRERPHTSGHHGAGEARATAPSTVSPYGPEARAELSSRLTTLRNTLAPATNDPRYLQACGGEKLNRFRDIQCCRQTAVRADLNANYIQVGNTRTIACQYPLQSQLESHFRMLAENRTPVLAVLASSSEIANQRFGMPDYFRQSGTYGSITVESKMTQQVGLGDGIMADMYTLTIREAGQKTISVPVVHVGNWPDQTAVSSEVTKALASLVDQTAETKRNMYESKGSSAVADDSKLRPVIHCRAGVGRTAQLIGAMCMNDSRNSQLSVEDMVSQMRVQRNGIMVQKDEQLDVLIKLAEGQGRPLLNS
# Tyrosine-protein phosphatase YopH (Yersinia enterocolitica), sequence (P15273 whole entry): as above
Compound,IC50 [1] [µM],inhibition [2] [%],Ki [3] [µM],Ki [4] [µM]
COc1ccc2nc(Cl)c(/C=C/C(=O)c3ccc4ccccc4c3)cc2c1,268,34.6,–,–
O=C1[C@@H]2C3C=CC(O3)[C@@H]2C(=O)N1c1ccc(S(=O)(=O)N2CCCC2)cc1,9,76.4,4.4,–
O=C(/C=C/c1cc2ccccc2nc1Cl)c1ccc2c(c1)OCO2,117,44.2,–,–
O=C(/C=C/c1cccc2ccccc12)c1ccc2ccccc2c1,193,26.5,–,–
O=C(/C=C/c1cccc([N+](=O)[O-])c1)c1ccc2ccccc2c1,122,34.7,–,–
O=C(/C=C/c1ccccc1)c1ccc2ccccc2c1,246,30.9,–,–
O=C(/C=C/c1ccc2c(c1)OCO2)c1cccc([N+](=O)[O-])c1,9.9,31.3,4.5,–
CC12C=CC(O1)[C@H]1C(=O)N(c3ccc(S(=O)(=O)N/N=C/c4ccc(Cl)c(Cl)c4)cc3)C(=O)[C@H]12 (stereo not given in full),62.2,45.6,–,–
O=C(/C=C/c1ccc2ccccc2c1)c1ccc2ccccc2c1,20.3,66.9,14.1,–
O=C(/C=C/c1ccc(-c2cc(C(F)(F)F)ccc2Cl)o1)c1ccc2c(c1)OCO2,38.6,33.8,11.1,–
O=C1c2cccc3c(Cl)ccc(c23)C(=O)N1Cc1ccc(S(=O)(=O)N2CCOCC2)cc1,15.5,82.1,–,36
O=C(/C=C/c1ccc2c(c1)OCO2)c1ccc([N+](=O)[O-])cc1,15.1,65.7,4.4,–
